What all share (type): cell-based
One experiment relates to NF-κB. As to the kind of experiment: Secreted NF-κB luciferase reporter assay in rabbit synoviocyte HIG-82 cells. The conditions noted are these: IL-1β 10 ng/ml, IDR-1002 100 μg/ml, 6 hr, FIG. 3. As to the method:
Rabbit synoviocyte HIG-82 cells were transiently transfected with pNFκB-MetLuc2-Reporter Vector (Clontech laboratories Inc., Mountain View, Calif., USA) or the provided control vector as per the manufacturer's instructions. Various stimulants were added to the transfected cells in culture media containing 1% (v/v) FBS. The cells were stimulated with recombinant human IL-1β in the presence and absence of IDR-1002 for 6 hr. The peptide was added either 45 min prior to, or at the time of cytokine stimulation. The activation of NF-κB was monitored by employing the Ready-To-Glow Secreted NF-κB Luciferase Reporter Assay (Clontech) as per the manufacturer's instructions.
Transcription factor NF-κB is central to the destructive effects associated with the escalation and sustenance of inflammatory responses pivotal in chronic inflammatory diseases including arthritis. Quantitative proteomics evaluation using iTRAQ® labelling pointed to the possibility that the peptide IDR-1002 altered IL-1β-induced NF-κB activation. Therefore, this study further evaluated the impact of IDR-1002 on IL-1β-induced direct activation of NF-κB in synovial fibroblasts. […] The activation of NF-κB was monitored by employing the Ready-To-Glow Secreted NF-κB Luciferase Reporter Assay (Clontech) as per the manufacturer's instructions.
On the technique in general: Reporter assays use an easily measured gene product as a stand-in for the process of interest.

The subject of experiment [1] is human FLS cells. As to the kind of experiment: IL-IRA production in human FLS cells stimulated with IL-1β (ELISA). The conditions noted are these: 48 hr, FIG. 5. As to the method: Tissue culture supernatants were harvested from human FLS cells after stimulation for 48 hr with IL-1β with and without IDR-1002. The supernatants were centrifuged at 1500×g for 7 min to obtain cell-free samples. The samples were aliquoted and stored at −20° C. until further use. Production of IL-IRA in the tissue culture supernatants was monitored using Quantikine® human […] ELISA following the manufacturer's instructions. […] Results shown are an average of at least three independent biological experiments performed with cells isolated from synovial tissues obtained from independent donors±standard error (*p<0.05, **p<0.01).
On the technique in general: ELISA stands for enzyme-linked immunosorbent assay.

For experiment [2], the system named is human FLS cells. As to the kind of experiment: Transcriptional responses for IL-IRA and SIGIRR in human FLS cells (quantitative real-time PCR). The settings on record: FIG. 6; for IL-IRA transcription / SIGIRR transcription: in comparison to IL-1β alone, 2 hrs. As to the method: Additionally, transcriptional responses for IL-IRA and SIGIRR in these cell cultures were evaluated by quantitative real-time PCR after 2 hrs.
(In general: Quantitative PCR measures a nucleic acid by following its amplification.)

Experiment [3] has as its system Human macrophage-like THP-1 cells. As to the kind of experiment: TNF-α and IL-1β production in IL-32-stimulated THP-1 cells (ELISA). The conditions noted are these: 24 hr; for reduction of IL-32-induced TNF-α production: FIG. 7A; for reduction of IL-32-induced IL-1β production: FIG. 7B. As to the method: Human macrophage-like THP-1 cells were stimulated for 24 hr with pro-inflammatory cytokine IL-32 (20 ng/ml) in the presence and absence of IDR-1002 (10 or 20 μM). The tissue culture supernatants were monitored for the production of pro-inflammatory cytokines TNF-α and IL-1β after 24 hr by ELISA as described previously.

Another experiment concerns JNK. As to the kind of experiment: JNK activity assay (immunoprecipitation, c-Jun Ser73 phosphorylation immunoblot) in human FLS cells. The conditions noted are these: IL-1β 10 ng/ml 15 min; IDR-1002 100 μg/ml 45 min prior to or at time of stimulation; FIG. 8. As to the method: (§1) Human FLS cells (5×10^4/ml) were seeded in a total volume of 20 ml per 75 cm^2 tissue culture flask in complete DMEM media containing 10% FBS for each condition. The cells were allowed to adhere overnight. Following day the media was changed to 10 ml complete DMEM containing 1% FBS. The cells were either un-stimulated or treated with IL-1β (10 ng/ml) in the presence or absence of IDR-1002 (100 μg/ml) for 15 min. IL-1β is known to induce JNK activation, and also p38 MAPK activity, after 15 min in FLS cells. Peptide IDR-1002 (100 μg/ml) was added either 45 min prior to, or at the time of stimulation with IL-1β. Total protein concentration was evaluated for each cell lysate employing micro BCA (Thermo Scientific). Kinase activities specific to JNK and to p38-MAPK were monitored employing the JNK activity assay kit and the p38 MAPK assay kit (Abcam Inc., Calif., USA) following the manufacturer's instructions. For JNK, 50 μg of total protein per cell lysate was used for immunoprecipitation employing a JNK-specific antibody. The eluate was treated with c-Jun substrate and ATP mixture. Subsequent phosporylation of c-Jun was evaluated by probing immunoblots with anti-phospho-c-Jun (Ser73) specific antibody. […] Subsequent phosporylation of ATF-2 was evaluated by probing immunoblots with a phospho-ATF-2 (Thr76) specific antibody. […]

A further experiment concerns p38 MAPK. As to the kind of experiment: p38 MAPK activity assay (immunoprecipitation, ATF-2 Thr76 phosphorylation immunoblot) in human FLS cells. The conditions noted are these: IL-1β 10 ng/ml 15 min; IDR-1002 100 μg/ml 45 min prior to or at time of stimulation; FIG. 9. As to the method:
as §1

With VQRWLIVWRIRK (IDR-1002 peptide), the “suppression of IL-1β-induced activation of NF-κB” value with NF-κB is “greater than 70%”. Besides, the “IL-IRA production with IL-1β in the presence of IDR-1002, relative to IL-1β in the presence of IDR-1” value with human FLS cells [1] is recorded as “more than twice as much IL-IRA”. Further, in the experiment on human FLS cells [1] (IL-1β alone about 150 pg/ml), the “IL-IRA production with IL-1β in the presence of IDR-1002, relative to IL-1β alone” value was “more than twice as much IL-IRA”. Besides, in the experiment with human FLS cells [1] (no IL-1β), the “IL-IRA production by IDR-1002 alone” value was “did not stimulate production of IL-IRA”. Also, the IL-IRA transcription result in the experiment on human FLS cells [2] (IDR-1002 alone) and in the experiment with human FLS cells [2] (IDR-1002 plus IL-1β) was “significantly increased” each time. The SIGIRR transcription entry in the experiment with human FLS cells [2] (IDR-1002 alone) and in the experiment with human FLS cells [2] (IDR-1002 plus IL-1β) was “significantly increased” throughout. In addition, the “SIGIRR gene expression induced by IDR-1002 relative to cells stimulated with IL-1β” value in the experiment on human FLS cells [2] (human FLS) was “more than 9 fold”. For the same sequence, the “reduction of IL-32-induced TNF-α production” value in experiment [3] (10 μM IDR-1002, IL-32 20 ng/ml) is listed as 40%; in experiment [3] (20 μM IDR-1002, IL-32 20 ng/ml) it was “about 70%”. The “reduction of IL-32-induced IL-1β production” value in experiment [3] (10 μM IDR-1002, IL-32 20 ng/ml) is listed as “about 40%”; in experiment [3] (20 μM IDR-1002, IL-32 20 ng/ml), “about 65%”. Besides, the “IL-1β-induced JNK activity and phosphorylation of c-Jun (Ser73)” value in the experiment with JNK was “abrogated”. Also, the “IL-1β-induced p38 MAPK activity and phosphorylation of ATF-2 (Thr76)” value with p38 MAPK was “abrogated”.

The values above are taken from patent US20130316963A1, “INNATE DEFENCE REGULATORY PEPTIDE COMPOSITIONS FOR TREATMENT OF ARTHRITIS” (UNIVERSITY OF MANITOBA, priority 2010, published 2013).
